# Like-named read-outs stand apart in the source and are kept apart here.
# System: SSTR2 mutants
# Assay: NanoBiT β-arrestin 1 recruitment assay, HEK293 (SSTR2 mutants);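 on Best-fit values Bottom: percent of maximal wild-type response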;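 on Best-fit values Span: percent of maximal wild-type response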;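 on Best-fit values Top: percent of maximal wild-type response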;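 on Bottom (best-fit): percent of maximal wild-type response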;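 on Span (best-fit): percent of maximal wild-type response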;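 on Top (best-fit value): percent of maximal wild-type response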;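 on Top (best-fit): percent of maximal wild-type response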;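 on Top: percent of maximal wild-type response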
# Type: cell-based, human
# Design: Bottom / Span / Bottom (best-fit) / Span (best-fit) / Best-fit values Bottom / Best-fit values Span / Bottom (best-fit value) / Span (best-fit value):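 percent of maximal wild-type response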
# Procedure: The NanoBiT β-arrestin 1 recruitment assays were carried out according to the method described previously. […] Human full-length SSTR wild-type and mutant vectors were C-terminally fused with a 15-amino acid flexible linker and the small fragment (SmBiT). HEK293 cells were seeded into six-well microplates at a density of 1.0 × 10^6 cells/well and cultured for 24 h at 37 °C with 5% CO2. After that, cells were co-transfected with pcDNA3.1+ vectors encoding SSTR wild-type or mutants and human β-arrestin 1. After transfecting for 24 h, the transfected cells were suspended and seeded into white 96-well plates, and then cultured at 37 °C overnight. After that the medium in each well was exchanged for 90 μl of 0.01% bovine serum albumin containing 20 μl of 50 μM coelenterazine h (Carbosynth) diluted in the HBSS assay buffer and incubated for 40 min at room temperature. Then, ligands diluted in the assay buffer was added to each well and the luminescence intensity was measured using the Synergy H1 microplate reader and detected at room temperature in a time period. All data presented are means of at least three independent experiments.
# [1] = D295A-1 (run 1), β-arrestin1 recruitment
# [2] = D295A-2 (run 2), β-arrestin1 recruitment
# [3] = D295A-3 (run 3), β-arrestin1 recruitment
# [4] = L290A-1 (run 1), β-arrestin1 recruitment
# [5] = L290A-2 (run 2), β-arrestin1 recruitment
# [6] = L290A-3 (run 3), β-arrestin1 recruitment
# [7] = S279A-1 (run 1), β-arrestin1 recruitment
# [8] = S279A-2 (run 2), β-arrestin1 recruitment
# [9] = S279A-3 (run 3), β-arrestin1 recruitment
# [10] = Y302A-1 (run 1), β-arrestin1 recruitment
# [11] = Y302A-2 (run 2), β-arrestin1 recruitment
# [12] = Y302A-3 (run 3), β-arrestin1 recruitment
# [13] = best-fit value, I195A-1 (run 1)
# [14] = best-fit value, I195A-2 (run 2)
# [15] = best-fit value, I195A-3 (run 3)
structure (smiles),measurement,setting,value
C[C@@H](O)[C@@H]1NC(=O)[C@H](CCCCN)NC(=O)[C@@H](Cc2c[nH]c3ccccc23)NC(=O)[C@H](Cc2ccccc2)NC(=O)[C@@H](NC(=O)[C@H](N)Cc2ccccc2)CSSC[C@@H](C(=O)N[C@H](CO)[C@@H](C)O)NC1=O [octreotide],Bottom (best-fit value),[1],0.2059
same,LogEC50 (best-fit value),[1],-6.975
same,Span (best-fit value),[1],90.14
same,Top (best-fit value),[1],90.34
same,EC50,"D295A-1 (run 1), β-arrestin1 recruitment, read-out: EC50 (best-fit value)",106 nM
same,Bottom (best-fit value),[2],-0.553
same,LogEC50 (best-fit value),[2],-6.954
same,Span (best-fit value),[2],94.35
same,Top (best-fit value),[2],93.8
same,EC50,"D295A-2 (run 2), β-arrestin1 recruitment, read-out: EC50 (best-fit value)",111 nM
same,Bottom (best-fit value),[3],-6.587
same,LogEC50 (best-fit value),[3],-6.025
same,Span (best-fit value),[3],251.8
same,Top (best-fit value),[3],245.2
same,EC50,"D295A-3 (run 3), β-arrestin1 recruitment, read-out: EC50 (best-fit value)",944 nM
same,Bottom (best-fit),F127A-1,-1.151
same,LogEC50 (best-fit),F127A-1,-8.337
same,Span (best-fit),F127A-1,58.78
same,Top (best-fit),F127A-1,57.63
same,EC50,"F127A-1, read-out: EC50 (best-fit)",4.6 nM
same,Bottom (best-fit),F127A-2,-1.134
same,LogEC50 (best-fit),F127A-2,-8.363
same,Span (best-fit),F127A-2,52.24
same,Top (best-fit),F127A-2,51.1
same,EC50,"F127A-2, read-out: EC50 (best-fit)",4.33 nM
same,Bottom (best-fit),F127A-3,-1.083
same,LogEC50 (best-fit),F127A-3,-8.391
same,Span (best-fit),F127A-3,50.21
same,Top (best-fit),F127A-3,49.13
same,EC50,"F127A-3, read-out: EC50 (best-fit)",4.07 nM
same,Bottom (best-fit),F208A-1,-1.787
same,LogEC50 (best-fit),F208A-1,-6.773
same,Span (best-fit),F208A-1,82.48
same,Top (best-fit),F208A-1,80.69
same,EC50,"F208A-1, read-out: EC50 (best-fit)",169 nM
same,Bottom (best-fit),F208A-2,-1.774
same,LogEC50 (best-fit),F208A-2,-6.823
same,Span (best-fit),F208A-2,91.81
same,Top (best-fit),F208A-2,90.03
same,EC50,"F208A-2, read-out: EC50 (best-fit)",150 nM
same,Bottom (best-fit),F208A-3,-1.249
same,LogEC50 (best-fit),F208A-3,-6.77
same,Span (best-fit),F208A-3,80.71
same,Top (best-fit),F208A-3,79.46
same,EC50,"F208A-3, read-out: EC50 (best-fit)",170 nM
same,β-arrestin recruitment of mutant,F294(7.35)A,nearly impaired the octreotide-induced β-arrestin recruitment
same,β-arrestin signal of mutants,I284ECL3A and K291(7.32)A,reduced potency and efficacy of octreotide induced β-arrestin signal
same,Bottom (best-fit value),[4],5.848
same,LogEC50 (best-fit value),[4],-8.723
same,Span (best-fit value),[4],78.77
same,Top (best-fit value),[4],84.62
same,EC50,"L290A-1 (run 1), β-arrestin1 recruitment, read-out: EC50 (best-fit value)",1.89 nM
same,Bottom (best-fit value),[5],5.656
same,LogEC50 (best-fit value),[5],-8.77
same,Span (best-fit value),[5],81.03
same,Top (best-fit value),[5],86.69
same,EC50,"L290A-2 (run 2), β-arrestin1 recruitment, read-out: EC50 (best-fit value)",1.7 nM
same,Bottom (best-fit value),[6],-1.116
same,LogEC50 (best-fit value),[6],-8.203
same,Span (best-fit value),[6],76.53
same,Top (best-fit value),[6],75.41
same,EC50,"L290A-3 (run 3), β-arrestin1 recruitment, read-out: EC50 (best-fit value)",6.27 nM
same,β-arrestin recruitment of mutant,N276(6.55)A,nearly abolished the recruitment of β-arrestin
same,Best-fit values Bottom,P220A-1,0.1149
same,Best-fit values LogEC50,P220A-1,-6.553
same,Best-fit values Span,P220A-1,34.49
same,Best-fit values Top,P220A-1,34.6
same,EC50,"P220A-1, read-out: Best-fit values EC50",280 nM
same,Best-fit values Bottom,P220A-2,-0.6221
same,Best-fit values LogEC50,P220A-2,-7.989
same,Best-fit values Span,P220A-2,58.87
same,Best-fit values Top,P220A-2,58.25
same,EC50,"P220A-2, read-out: Best-fit values EC50",10.3 nM
same,Best-fit values Bottom,P220A-3,-0.6988
same,Best-fit values LogEC50,P220A-3,-8.034
same,Best-fit values Span,P220A-3,50.86
same,Best-fit values Top,P220A-3,50.16
same,EC50,"P220A-3, read-out: Best-fit values EC50",9.24 nM
same,Bottom (best-fit value),[7],-1.308
same,LogEC50 (best-fit value),[7],-8.149
same,Span (best-fit value),[7],94.92
same,Top (best-fit value),[7],93.61
same,EC50,"S279A-1 (run 1), β-arrestin1 recruitment, read-out: EC50 (best-fit value)",7.09 nM
same,Bottom (best-fit value),[8],-2.227
same,Span (best-fit value),[8],74.73
same,Top (best-fit value),[8],72.5
same,EC50,"S279A-2 (run 2), β-arrestin1 recruitment, read-out: EC50 (best-fit value)",21.4 nM
same,Bottom (best-fit value),[9],0.9887
same,LogEC50 (best-fit value),[9],-6.436
same,Span (best-fit value),[9],131.8
same,Top (best-fit value),[9],132.8
same,EC50,"S279A-3 (run 3), β-arrestin1 recruitment, read-out: EC50 (best-fit value)",366 nM
same,Best-fit values Bottom,W269A-1,0.3902
same,Best-fit values LogEC50,W269A-1,-7.096
same,Best-fit values Span,W269A-1,27.42
same,Best-fit values Top,W269A-1,27.81
same,EC50,"W269A-1, read-out: Best-fit values EC50",80.1 nM
same,Best-fit values LogEC50,W269A-2,-7.281
same,Best-fit values Span,W269A-2,32.61
same,Best-fit values Top,W269A-2,36.93
same,EC50,"W269A-2, read-out: Best-fit values EC50",52.3 nM
same,Best-fit values Bottom,W269A-3,3.687
same,Best-fit values LogEC50,W269A-3,-7.475
same,Best-fit values Span,W269A-3,31.64
same,Best-fit values Top,W269A-3,35.33
same,EC50,"W269A-3, read-out: Best-fit values EC50",33.5 nM
same,Bottom (best-fit),Y205A-1,-3.221
same,LogEC50 (best-fit),Y205A-1,-7.699
same,Span (best-fit),Y205A-1,139.2
same,Top (best-fit),Y205A-1,135.9
same,EC50,"Y205A-1, read-out: EC50 (best-fit)",20 nM
same,Bottom (best-fit),Y205A-2,-1.321
same,LogEC50 (best-fit),Y205A-2,-8.57
same,Span (best-fit),Y205A-2,93.02
same,Top (best-fit),Y205A-2,91.7
same,EC50,"Y205A-2, read-out: EC50 (best-fit)",2.69 nM
same,Bottom (best-fit),Y205A-3,0.3514
same,LogEC50 (best-fit),Y205A-3,-7.837
same,Span (best-fit),Y205A-3,328.7
same,Top (best-fit),Y205A-3,329.1
same,EC50,"Y205A-3, read-out: EC50 (best-fit)",14.5 nM
same,β-arrestin recruitment of mutant,Y302(7.43)A,slightly impaired
same,Bottom (best-fit value),[10],-0.3068
same,LogEC50 (best-fit value),[10],-8.733
same,Span (best-fit value),[10],87.43
same,Top (best-fit value),[10],87.12
same,EC50,"Y302A-1 (run 1), β-arrestin1 recruitment, read-out: EC50 (best-fit value)",1.85 nM
same,Bottom (best-fit value),[11],0.826
same,LogEC50 (best-fit value),[11],-8.763
same,Span (best-fit value),[11],86.05
same,Top (best-fit value),[11],86.87
same,EC50,"Y302A-2 (run 2), β-arrestin1 recruitment, read-out: EC50 (best-fit value)",1.72 nM
same,Bottom (best-fit value),[12],1.139
same,LogEC50 (best-fit value),[12],-8.739
same,Span (best-fit value),[12],85.71
same,Top (best-fit value),[12],86.85
same,EC50,"Y302A-3 (run 3), β-arrestin1 recruitment, read-out: EC50 (best-fit value)",1.82 nM
same,Bottom,[13],-0.3262
same,LogEC50,[13],-7.224
same,Span,[13],58.86
same,Top,[13],58.54
same,EC50,"best-fit value, I195A-1 (run 1), read-out: EC50",59.8 nM
same,Bottom,[14],-0.9813
same,LogEC50,[14],-7.334
same,Span,[14],61.03
same,Top,[14],60.04
same,EC50,"best-fit value, I195A-2 (run 2), read-out: EC50",46.3 nM
same,Bottom,[15],-0.6923
same,LogEC50,[15],-7.245
same,Span,[15],59.4
same,Top,[15],58.71
same,EC50,"best-fit value, I195A-3 (run 3), read-out: EC50",56.9 nM
same,Bottom,"best-fit value, L99A-1 (run 1)",17.86
same,LogEC50,"best-fit value, L99A-1 (run 1)",-6.902
same,Span,"best-fit value, L99A-1 (run 1)",95.94
same,Top,"best-fit value, L99A-1 (run 1)",113.8
same,Bottom,"best-fit value, L99A-2 (run 2)",-2.171
same,LogEC50,"best-fit value, L99A-2 (run 2)",-7.606
same,Span,"best-fit value, L99A-2 (run 2)",48.46
same,Top,"best-fit value, L99A-2 (run 2)",46.29
same,EC50,"best-fit value, L99A-2 (run 2), read-out: EC50",24.8 nM
same,Bottom,"best-fit value, L99A-3 (run 3)",-2.89
